The record followed here is patent US8815845B2, “1,4-benzodiazepine-2,5-diones and related compounds with therapeutic properties” (The Regents of the University of Michigan, priority 2009, dated 2014).

Assay [1] deals with ROCK-I (h, amino acids 17-535) (Homo sapiens (Human), UniProt Q13464). Briefly: ROCK-I (h) inhibition assay. The assay is classed as biochemical. The note with it: read-out: ROCK1 IC50. Here is the method:
ROCK-I (h) Inhibition Assay:
In a final reaction volume of 25 μL, ROCK-I (h, amino acids 17-535) (5-10 mU) was incubated with 8 mM MOPS pH 7.0, 0.2 mM EDTA, 30 μM […], 10 mM magnesium acetate and [γ-^32P-ATP] (specific activity approx. 500 cpm/pmol, concentration as required). The reaction was initiated by the addition of the MgATP mix. After incubation for 40 minutes at room temperature, the reaction was stopped by the addition of 5 μL of a 3% phosphoric acid solution. 10 μL of the reaction was then spotted onto a P30 filtermat and washed three times for 5 minutes in 75 mM phosphoric acid and once in methanol prior to drying and scintillation counting.

The target in assay [2] is ROCK-II (h, amino acids 11-552) (Homo sapiens (Human), UniProt O75116). Nature of the assay: ROCK-II (h) inhibition assay. The assay is classed as biochemical. The note with it: read-out: ROCK2 IC50. How it is done: ROCK-II (h) Inhibition Assay:
In a final reaction volume of 25 μL, ROCK-II (h, amino acids 11-552) (5-10 mU) was incubated with 50 mM Tris pH 7.5, 0.1 mM EGTA, 30 [μM […], 10 mM magnesium acetate and γ-^32P-ATP] (specific activity approx. 500 cpm/pmol, concentration as required). The reaction was initiated by the addition of the MgATP mix. After incubation for 40 minutes at room temperature, the reaction was stopped by the addition of 5 μL of a 3% phosphoric acid solution. 10 μL of the reaction was then spotted onto a P30 filter-mat and washed three times for 5 minutes in 75 mM phosphoric acid and once in methanol prior to drying and scintillation counting.

Chain of ROCK-II (h, amino acids 11-552) (O75116 11-552): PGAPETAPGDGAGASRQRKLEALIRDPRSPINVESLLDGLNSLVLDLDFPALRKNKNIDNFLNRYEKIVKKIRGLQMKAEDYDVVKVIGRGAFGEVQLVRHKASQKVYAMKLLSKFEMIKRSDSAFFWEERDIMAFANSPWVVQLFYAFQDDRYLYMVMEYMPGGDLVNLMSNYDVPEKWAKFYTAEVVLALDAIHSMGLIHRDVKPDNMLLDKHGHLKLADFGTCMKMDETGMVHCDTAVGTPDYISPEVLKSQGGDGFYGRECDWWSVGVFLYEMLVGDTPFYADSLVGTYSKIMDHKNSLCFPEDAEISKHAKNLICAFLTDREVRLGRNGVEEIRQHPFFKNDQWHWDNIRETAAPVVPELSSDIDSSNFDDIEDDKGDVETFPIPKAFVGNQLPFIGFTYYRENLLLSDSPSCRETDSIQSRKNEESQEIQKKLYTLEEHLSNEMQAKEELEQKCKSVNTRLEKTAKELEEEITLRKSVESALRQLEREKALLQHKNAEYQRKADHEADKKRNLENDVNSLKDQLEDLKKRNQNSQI
Chain of ROCK-I (h, amino acids 17-535) (Q13464 17-535): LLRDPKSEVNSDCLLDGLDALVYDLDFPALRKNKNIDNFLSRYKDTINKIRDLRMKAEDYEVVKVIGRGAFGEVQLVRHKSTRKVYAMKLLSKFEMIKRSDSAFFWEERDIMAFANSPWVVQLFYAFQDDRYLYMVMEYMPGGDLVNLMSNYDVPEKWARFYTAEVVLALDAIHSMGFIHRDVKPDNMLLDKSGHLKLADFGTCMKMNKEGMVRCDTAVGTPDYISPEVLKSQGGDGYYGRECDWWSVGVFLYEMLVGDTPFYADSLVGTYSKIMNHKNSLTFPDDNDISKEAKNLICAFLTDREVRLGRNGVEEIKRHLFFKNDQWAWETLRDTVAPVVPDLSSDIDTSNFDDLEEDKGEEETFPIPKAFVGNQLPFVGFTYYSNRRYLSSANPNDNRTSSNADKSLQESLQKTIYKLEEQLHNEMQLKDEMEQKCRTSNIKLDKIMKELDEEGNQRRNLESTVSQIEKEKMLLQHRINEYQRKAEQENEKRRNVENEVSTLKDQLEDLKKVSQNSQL

In general, IC50 refers to the concentration at which inhibition is half-maximal. For the compound `CN1C(=O)[C@@H](Cc2ccc(-c3cn[nH]c3)cc2)NC(=O)c2cc(Cl)ccc21` [Compound 1, (R)-3-(4-(1H-pyrazol-4-yl)benzyl)-7-chloro-1-methyl-3,4-dihydro-1H-benzo[e][1,4]diazepine-2,5-dione], the values for the IC50 in assay [1] and in assay [2] were > 30000 nM and 1000 nM, respectively.
As to `CN1C(=O)[C@@H](Cc2ccc(-c3ccnc(N)c3)cc2)NC(=O)c2cc(Cl)ccc21` [Compound 2, (R)-3-(4-(2-aminopyridin-4-yl)benzyl)-7-chloro-1-methyl-3,4-dihydro-1H-benzo[e][1,4]diazepine-2,5-dione], the IC50 in assay [1] was > 10000 nM; in assay [2], 7100 nM.
For `COc1ccc2c(c1)C(=O)N[C@@H](Cc1ccc(-c3ccnc(N)c3)cc1)C(=O)N2C` [Compound 3, (S)-3-(4-(2-aminopyridin-4-yl)benzyl)-7-methoxy-1-methyl-3,4-dihydro-1H-benzo[e][1,4]diazepine-2,5-dione], in that order: > 10000 nM and 2400 nM.
Turning to `CN1C(=O)[C@H](Cc2ccc(-c3ccnc4[nH]ccc34)cc2)NC(=O)c2cc(Cl)ccc21` [Compound 4, (S)-3-(4-(1H-pyrrolo[2,3-b]pyridin-4-yl)benzyl)-7-chloro-1-methyl-3,4-dihydro-1H-benzo[e][1,4]diazepine-2,5-dione], the IC50 is 5100 nM in assay [1] and 250 nM in assay [2].
As to `COc1ccc2c(c1)C(=O)N[C@@H](Cc1ccc(-c3ccnc4[nH]ccc34)cc1)C(=O)N2C` [Compound 5, (S)-3-(4-(1H-pyrrolo[2,3-b]pyridin-4-yl)benzyl)-7-methoxy-1-methyl-3,4-dihydro-1H-benzo[e][1,4]diazepine-2,5-dione], the IC50 in assay [1] was 2800 nM; in assay [2], 200 nM.
